Tests used:
Test in all cases: relative viability (nuclei count vs DMSO), 5 days (fraction); higher = more cells survive
HCC-366 = system: HCC-366
Method in brief: (§1)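 Lung cancer cell lines were pin-tool dosed in 1536-well plates on the day after seeding, with either a lone drug or a fixed anchor-drug dose plus five library-drug doses (not always all listed) in √10 steps. Nuclei were counted on 4× images after 5 days. Relative viability is the ratio of treated-well to vehicle-well nuclei counts, with each value a median of duplicate plates.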

NCI-H2009 = system: NCI-H2009
Method in brief: as §1

NCI-H2228 = system: NCI-H2228
Method in brief: as §1

NCI-H23 = system: NCI-H23
Method in brief: as §1

NCI-H1944 = system: NCI-H1944
Method in brief: as §1

NCI-H2405 = system: NCI-H2405
Method in brief: as §1

ABC-1 = system: ABC-1
Method in brief: as §1

SK-LU-1 = system: SK-LU-1
Method in brief: as §1

NCI-H2023 = system: NCI-H2023
Method in brief: as §1

UMC-11 = system: UMC-11
Method in brief: as §1

HCC-15 = system: HCC-15
Method in brief: as §1

NCI-H1734 = system: NCI-H1734
Method in brief: as §1

EMC-BAC-2 = system: EMC-BAC-2
Method in brief: as §1

COR-L23 = system: COR-L23
Method in brief: as §1

LC-2-ad = system: LC-2-ad
Method in brief: as §1

NCI-H838 = system: NCI-H838
Method in brief: as §1

ChaGo-K-1 = system: ChaGo-K-1
Method in brief: as §1

A-427 = system: A-427
Method in brief: as §1

HARA = system: HARA
Method in brief: as §1

NCI-H1993 = system: NCI-H1993
Method in brief: as §1

HCC-78 = system: HCC-78
Method in brief: as §1

NCI-H2126 = system: NCI-H2126
Method in brief: as §1

## CC1(C)CCC(c2ccc(Cl)cc2)=C(CN2CCN(c3ccc(C(=O)NS(=O)(=O)c4ccc(N[C@H](CCN5CCOCC5)CSc5ccccc5)c(S(=O)(=O)C(F)(F)F)c4)cc3)CC2)C1 [Navitoclax] + C[C@@H](Oc1cc(-c2cnn(C3CCNCC3)c2)cnc1N)c1c(Cl)ccc(F)c1Cl [Crizotinib] (partner 1 µM)
HCC-366; first compound 0.005 µM
  relative viability: 0.456
HCC-366; first compound 0.01581 µM
  relative viability: 0.635
HCC-366; first compound 0.05 µM
  relative viability: 0.0527
HCC-366; first compound 0.1581 µM
  relative viability: 0.514
HCC-366; first compound 0.5 µM
  relative viability: 0.562
NCI-H2009; first compound 0.005 µM
  relative viability: 0.972
NCI-H2009; first compound 0.01581 µM
  relative viability: 1.05
NCI-H2009; first compound 0.05 µM
  relative viability: 1.1
NCI-H2009; first compound 0.1581 µM
  relative viability: 1.13
NCI-H2009; first compound 0.5 µM
  relative viability: 1.05
NCI-H2228; first compound 0.005 µM
  relative viability: 0.633
NCI-H2228; first compound 0.01581 µM
  relative viability: 0.553
NCI-H2228; first compound 0.05 µM
  relative viability: 0.573
NCI-H2228; first compound 0.1581 µM
  relative viability: 0.454
NCI-H2228; first compound 0.5 µM
  relative viability: 0.52
NCI-H23; first compound 0.005 µM
  relative viability: 0.519
NCI-H23; first compound 0.01581 µM
  relative viability: 0.494
NCI-H23; first compound 0.05 µM
  relative viability: 0.516
NCI-H23; first compound 0.1581 µM
  relative viability: 0.516
NCI-H23; first compound 0.5 µM
  relative viability: 0.545
NCI-H1944; first compound 0.005 µM
  relative viability: 1.05
NCI-H1944; first compound 0.01581 µM
  relative viability: 1.13
NCI-H1944; first compound 0.05 µM
  relative viability: 0.798
NCI-H1944; first compound 0.1581 µM
  relative viability: 1.14
NCI-H1944; first compound 0.5 µM
  relative viability: 1.03
NCI-H2405; first compound 0.005 µM
  relative viability: 0.788
NCI-H2405; first compound 0.01581 µM
  relative viability: 0.948
NCI-H2405; first compound 0.05 µM
  relative viability: 0.824
NCI-H2405; first compound 0.1581 µM
  relative viability: 0.838
NCI-H2405; first compound 0.5 µM
  relative viability: 0.794
ABC-1; first compound 0.005 µM
  relative viability: 1.19
ABC-1; first compound 0.01581 µM
  relative viability: 1.4
ABC-1; first compound 0.05 µM
  relative viability: 1.19
ABC-1; first compound 0.1581 µM
  relative viability: 1.14
ABC-1; first compound 0.5 µM
  relative viability: 0.983
SK-LU-1; first compound 0.005 µM
  relative viability: 0.846
SK-LU-1; first compound 0.01581 µM
  relative viability: 0.975
SK-LU-1; first compound 0.05 µM
  relative viability: 1.14
SK-LU-1; first compound 0.1581 µM
  relative viability: 0.894
SK-LU-1; first compound 0.5 µM
  relative viability: 0.834
NCI-H2023; first compound 0.005 µM
  relative viability: 0.668
NCI-H2023; first compound 0.01581 µM
  relative viability: 0.65
NCI-H2023; first compound 0.05 µM
  relative viability: 0.694
NCI-H2023; first compound 0.1581 µM
  relative viability: 0.738
NCI-H2023; first compound 0.5 µM
  relative viability: 0.662
UMC-11; first compound 0.005 µM
  relative viability: 0.646
UMC-11; first compound 0.01581 µM
  relative viability: 0.583
UMC-11; first compound 0.1581 µM
  relative viability: 0.636
UMC-11; first compound 0.5 µM
  relative viability: 0.401
HCC-15; first compound 0.005 µM
  relative viability: 0.802
HCC-15; first compound 0.01581 µM
  relative viability: 0.848
HCC-15; first compound 0.05 µM
  relative viability: 0.883
HCC-15; first compound 0.1581 µM
  relative viability: 0.822
HCC-15; first compound 0.5 µM
  relative viability: 0.786
NCI-H1734; first compound 0.005 µM
  relative viability: 0.705
NCI-H1734; first compound 0.01581 µM
  relative viability: 0.681
NCI-H1734; first compound 0.1581 µM
  relative viability: 0.785
NCI-H1734; first compound 0.5 µM
  relative viability: 0.693
EMC-BAC-2; first compound 0.005 µM
  relative viability: 0.716
EMC-BAC-2; first compound 0.01581 µM
  relative viability: 0.689
EMC-BAC-2; first compound 0.05 µM
  relative viability: 0.743
EMC-BAC-2; first compound 0.1581 µM
  relative viability: 0.703
EMC-BAC-2; first compound 0.5 µM
  relative viability: 0.701
COR-L23; first compound 0.005 µM
  relative viability: 0.618
COR-L23; first compound 0.01581 µM
  relative viability: 0.712
COR-L23; first compound 0.05 µM
  relative viability: 0.686
COR-L23; first compound 0.1581 µM
  relative viability: 0.664
COR-L23; first compound 0.5 µM
  relative viability: 0.643
LC-2-ad; first compound 0.005 µM
  relative viability: 0.422
LC-2-ad; first compound 0.01581 µM
  relative viability: 0.489
LC-2-ad; first compound 0.05 µM
  relative viability: 0.538
LC-2-ad; first compound 0.1581 µM
  relative viability: 0.429
LC-2-ad; first compound 0.5 µM
  relative viability: 0.575
NCI-H838; first compound 0.005 µM
  relative viability: 0.794
NCI-H838; first compound 0.01581 µM
  relative viability: 0.885
NCI-H838; first compound 0.05 µM
  relative viability: 1.01
NCI-H838; first compound 0.1581 µM
  relative viability: 0.802
NCI-H838; first compound 0.5 µM
  relative viability: 0.817
ChaGo-K-1; first compound 0.005 µM
  relative viability: 1.1
ChaGo-K-1; first compound 0.01581 µM
  relative viability: 1.11
ChaGo-K-1; first compound 0.05 µM
  relative viability: 0.601
ChaGo-K-1; first compound 0.1581 µM
  relative viability: 1.1
ChaGo-K-1; first compound 0.5 µM
  relative viability: 1.19
A-427; first compound 0.005 µM
  relative viability: 0.828
A-427; first compound 0.01581 µM
  relative viability: 0.948
A-427; first compound 0.05 µM
  relative viability: 0.652
A-427; first compound 0.1581 µM
  relative viability: 1.01
A-427; first compound 0.5 µM
  relative viability: 0.915
HARA; first compound 0.005 µM
  relative viability: 1.09
HARA; first compound 0.01581 µM
  relative viability: 1.16
HARA; first compound 0.05 µM
  relative viability: 0.944
HARA; first compound 0.1581 µM
  relative viability: 0.907
HARA; first compound 0.5 µM
  relative viability: 1.01
NCI-H1993; first compound 0.005 µM
  relative viability: 0.89
NCI-H1993; first compound 0.01581 µM
  relative viability: 1
NCI-H1993; first compound 0.05 µM
  relative viability: 0.848
NCI-H1993; first compound 0.1581 µM
  relative viability: 0.853
NCI-H1993; first compound 0.5 µM
  relative viability: 0.866
HCC-78; first compound 0.005 µM
  relative viability: 0.368
HCC-78; first compound 0.01581 µM
  relative viability: 0.376
HCC-78; first compound 0.1581 µM
  relative viability: 0.345
HCC-78; first compound 0.5 µM
  relative viability: 0.322
NCI-H2126; first compound 0.005 µM
  relative viability: 1.04
NCI-H2126; first compound 0.01581 µM
  relative viability: 1.05
NCI-H2126; first compound 0.05 µM
  relative viability: 1.07
NCI-H2126; first compound 0.1581 µM
  relative viability: 1.01
NCI-H2126; first compound 0.5 µM
  relative viability: 0.972

From the supplement of paper PMC10307832
